Paper PMC10328743, “5-Nitro-3-(2-(4-phenylthiazol-2-yl)hydrazineylidene)indolin-2-one derivatives inhibit HIV-1 replication by a multitarget mechanism of action” (Frontiers in Cellular and Infection Microbiology, 2023)
Like-named read-outs stand apart in the source and are kept apart here.

How the values were obtained:
[1] = biological target: T1, HIV-1 IN (LEDGF/p75-dependent) (Human immunodeficiency virus type 1 group M subtype B, UniProt P12497); experiment: biochemical; format: biochemical; settings: strand-transfer activity in the presence of LEDGF/p75; read-out: IC50 IN LEDGF-dependent integration
T1 construct: Preparation of recombinant full-length IN and LEDGF proteins; made in house; host or cells: E. coli BL21(DE3)
Experimental: (§1) Proteins were expressed in E. coli BL21(DE3). Briefly, His-IN was purified by loading the precipitate of cell lysate onto a Ni-Sepharose column and eluting with a […] imidazole gradient (0–500 mM) in a HEPES buffer (50 mM, pH 7.5) containing NaCl (1 M), CHAPS (7.5 mM), and β-mercaptoethanol (2 mM). FLAG-IN was purified by loading the precipitate of cell lysate onto a phenyl-sepharose and ammonium sulfate gradient (0–800 mM) in a HEPES (pH 7.5, 50 mM) buffer containing NaCl (200 mM), CHAPS (7.5 mM), and β-mercaptoethanol (2 mM). Peak fractions were pooled, loaded onto a heparin column, and eluted with an increasing NaCl gradient (200 mM to 1 M) in a HEPES (pH 7.5, 50 mM) buffer containing CHAPS (7.5 mm) and β-mercaptoethanol (2 mM). Fractions containing integrase were pooled and stored in glycerol (10%) at −80°C.
(§2) Briefly, IN (50 nM) was preincubated with increasing concentrations of compounds for 1 h at room temperature in a reaction buffer containing HEPES (20 mM, pH 7.5), DTT (1 mM), glycerol (1%), MgCl2 (20 mM), Brij-35 (0.05%), and bovine serum albumin (BSA) (0.1 mg/ml).

[2] = biological target: T2, HIV-1 RT-associated RNase H (Human immunodeficiency virus type 1 group M subtype B, UniProt P04585); experiment: HIV-1 DNA polymerase-independent RNase H activity determination; format: biochemical; settings: wt HIV-1 RT; three independent experiments, average ± standard deviation; read-out: RNase H IC50
T2 construct: The 1:1 ratio between the p66/p51 subunits was also verified; His tag (implied only by Ni-NTA IMAC purification); made in house; host or cells: Escherichia coli M15
Experimental: (§3) Escherichia coli strain M15 containing the p6HRT-prot vector (provided by Stuart Le Grice laboratory (NCI Frederick)) was grown to an optical density at 600 nm of 0.7 and induced with 1.7 mM of isopropyl β-D-1-thiogalactopyranoside (IPTG) for 4 h. Protein purification was carried out with a BioLogic LP system (Bio-Rad, Hercules, CA, USA) using a combination of immobilized metal affinity chromatography (IMAC) and ion exchange chromatography. Cell pellets were resuspended in lysis buffer (50 mM of sodium phosphate buffer, pH 7.8, containing 0.5 mg/mL of lysozyme), incubated on ice for 20 min, and, after the addition of NaCl to a final concentration of 0.3 M, were sonicated and centrifuged at 30,000 ×g for 1 h. The supernatant was loaded onto a Ni^2+-NTA-Sepharose column pre-equilibrated with loading buffer (50 mM of sodium phosphate buffer, pH 7.8, containing 0.3 M of NaCl, 10% glycerol, and 10 mM of imidazole) and washed thoroughly with wash buffer (50 mM of sodium phosphate buffer, pH 6.0, containing 0.3 M of NaCl, 10% glycerol, and 80 mM of imidazole). RT was eluted with an imidazole gradient in the wash buffer (0–0.5 M). Fractions were collected, and protein purity was checked by sodium dodecyl sulfate–polyacrylamide gel electrophoresis (SDS-PAGE) and found to be higher than 90%. The 1:1 ratio between the p66/p51 subunits was also verified. Enzyme-containing fractions were pooled and diluted 1:1 with 50 mM of sodium phosphate buffer, pH 7.0, containing 10% glycerol, and then loaded into a Hi-trap heparin HP GE (Healthcare LifeScience) pre-equilibrated with 10 column volumes of loading buffer (50 mM of sodium phosphate buffer, pH 7.0, containing 10% glycerol, and 150 mM of NaCl). The column was then washed with loading buffer, and the RT was eluted with Elute Buffer 2 (50 mM of sodium phosphate, pH 7.0, 10% glycerol, 1 M of NaCl). Fractions were collected, and the protein was dialyzed and stored in a buffer containing 50 mM of Tris-HCl, pH 7.0, 25 mM of NaCl, 1 mM of EDTA, and 50% glycerol. Catalytic activities and protein concentrations were determined. Enzyme-containing fractions were pooled, and aliquots were stored at −80°C.
HIV RT-associated RNase H activity was measured as described ([Corona et al., 2016b]) in a 100-µl reaction volume containing 50 mM of Tris-HCl buffer, pH 7.8, 6 mM of MgCl2, 1 mM of dithiothreitol (DTT), 80 mM of KCl, 0.25 µM of hybrid RNA/DNA 5′-[…]-Fluorescin-3′ (high-performance liquid chromatography (HPLC), dry, QC: Mass Check) (available from Metabion) 5′-Dabcyl-[…]-3′ (HPLC, dry, QC: Mass Check), increasing concentrations of inhibitors, whose dilution were made in water, and different amounts of enzymes according to a linear range of the dose–response curve. The reaction mixture was incubated for 1 h at 37°C and stopped by the addition of EDTA, and products were measured with a multilabel counter plate reader Victor 3 equipped with filters for 490/528 nm.

MT4 cells [3] = experiment: Viability of infected MT4 cells (cytotoxicity); format: cell-based; settings: no toxicity up to the highest concentration tested
Experimental: (§4) HIV-1 replication was carried out in MT4 cells as previously reported ([Corona et al., 2016a]) using a molecular clone derived from the pNL4-3 ([Thierry et al., 2015]). A total of 120 ng of p24^gag antigen per 10^6 cells, corresponding to a multiplicity of infection (m.o.i.) of 0.3, was used for infection. […] Flow cytometry analysis was performed on a FACSCalibur flow cytometer (BD Biosciences, San Jose, CA, USA), and the results were analyzed using the […] software.

[4] = Viability of infected MT4 cells (cytotoxicity); format: cell-based; settings: human, MT4 cells infected with HIV-1; infected MT4 cells viability; three independent experiments, average ± standard deviation
Experimental: as §4

HIV-1 IN-LEDGF binding = biological target: T3, HIV-1 IN-LEDGF binding (Human immunodeficiency virus type 1 group M subtype B, UniProt P12497); experiment: biochemical
T3 construct: Preparation of recombinant full-length IN and LEDGF proteins; made in house; host or cells: E. coli BL21(DE3)
Experimental: as §1
Briefly, His-IN was preincubated with different concentrations of a compound in a buffer containing NaCl (150 mm), MgCl2 (2 mM), Nonidet P-40 (0.1%), BSA (1 mg/ml), and Tris (pH 7.4, 25 mm) for 30 min at room temperature. Then, FLAG-LEDGF was added to the reaction mixture, and a mixture of anti-His6-XL665 and anti-FLAG-EuCryptate antibodies was added.

HIV-1 RT-associated RDDP = biological target: T4, HIV-1 RT-associated RDDP (Human immunodeficiency virus type 1 group M subtype B, UniProt P04585); experiment: HIV-1 RNA-dependent DNA polymerase activity determination; format: biochemical; settings: wt HIV-1 RT; three independent experiments, average ± standard deviation; read-out: RDDP IC50
T4 construct: The 1:1 ratio between the p66/p51 subunits was also verified; His tag (implied only by Ni-NTA IMAC purification); made in house; host or cells: Escherichia coli M15
Experimental: as §3
(§5) RDDP activity was measured as previously reported in 25-µl volume containing 60 mM of Tris‐HCl buffer, pH 8.1, 8 mM of MgCl2, 60 mM of KCl, 13 mM of DTT, 2.5 µM of poly(A)-oligo(dT), 100 µM of dTTP, increasing concentrations of inhibitors, whose dilution were made in water, and different amounts of enzymes according to a linear range of the dose–response curve. The reaction mixture was incubated for 30 min at 37°C and then stopped by the addition of EDTA. Reaction products were detected by pico green addition and measured with a multilabel counter plate reader Victor 3, equipped with filters for 502/523 nm.

[5] = biological target: T5, HIV-1 IN-IN subunit exchange (Human immunodeficiency virus type 1 group M subtype B, UniProt P12497); experiment: HTRF-based IN subunit exchange assay; format: binding
T5 construct: Preparation of recombinant full-length IN and LEDGF proteins; made in house; host or cells: E. coli BL21(DE3)
Experimental: as §1
His and FLAG-tagged INs were mixed in Tris (pH 7.4, 25 mm) buffer containing NaCl (150 mm), MgCl2 (2 mM), Nonidet P-40 (0.1%), and BSA (1 mg/ml). Test compounds were then added to the mixture, and incubation was carried out for 2.5 h at room temperature.

[6] = biological target: T6, HIV-1 IN (LEDGF-independent) (Human immunodeficiency virus type 1 group M subtype B, UniProt P12497); experiment: biochemical; settings: strand-transfer activity with omission of LEDGF/p75; read-out: IC50 IN LEDGF-independent integration
T6 construct: Preparation of recombinant full-length IN and LEDGF proteins; made in house; host or cells: E. coli BL21(DE3)
Experimental: as §1, §2

HIV-1 [7] = experiment: HIV-1 replication inhibition in MT4 cells; format: cell-based; settings: three independent experiments, average ± standard deviation, read-out: HIV-1 EC50
Experimental: as §4

HIV-1 RT K103N (RDDP) = experiment: RDDP activity of K103N HIV-1 RT; format: biochemical
Experimental: (§6) K103N, Y181C, and Y188L mutations were introduced into the p6HRT-prot vector using the QuikChange protocol (Agilent Technologies, Santa Clara, CA, USA). Enzymes were expressed and purified as the wt-HIV-1 RT.
as §5

HIV-1 RT Y181C (RDDP) = experiment: RDDP activity of Y181C HIV-1 RT; format: biochemical
Experimental: as §6, §5

HIV-1 RT Y188L (RDDP) = experiment: RDDP activity of Y188L HIV-1 RT; format: biochemical
Experimental: as §6, §5

MT4 cells [8] = settings: cited from earlier work
HIV-1 [9] = settings: read-out: HIV-1 EC50; viral replication in MT4 cells; ref Corona et al. (2014a); cited from earlier work
[10] = Human immunodeficiency virus 1, MT4, viral replication in MT4 cells

Question: For `O=C1Nc2ccc([N+](=O)[O-])cc2/C1=N/Nc1nc(-c2ccc(Cl)cc2)cs1` [1a], which IC50 [1] is on record?
Answer: Its IC50 is 22.4 ± 4.65 µM.

Question: What about the IC50 [2] of the same compound?
Answer: Its IC50 is 4.6 ± 1.4 µM.

Question: And the “toxicity against MT4 cells” value (MT4 cells [3])?
Answer: Its value is greater than 100 µM.

Question: And the CC50 [4]?
Answer: The CC50 was greater than 100 µM.

Question: And the IC50 (HIV-1 IN-LEDGF binding)?
Answer: Its IC50 is greater than 100 µM.

Question: And the IC50 (HIV-1 RT-associated RDDP)?
Answer: Its IC50 is 10 ± 0.5 µM.

Question: What about the IC50 [5] of the same compound?
Answer: The IC50 was 22.8 ± 2.6 µM.

Question: What about the IC50 [6] of the same compound?
Answer: The IC50 was 100 µM.

Question: What about the EC50 (HIV-1 [7]; [10]) of the same compound?
Answer: Its EC50 is less than 20 µM.

Question: What about the EC50 (HIV-1 [7]; viral replication in MT4 cells) of the same compound?
Answer: Its EC50 is 25 ± 2.1 µM.

Question: What does the source list for `O=C1Nc2ccc([N+](=O)[O-])cc2/C1=N/Nc1nc(-c2ccc(Br)cc2)cs1` [3a]?
Answer: IC50 [1]: 15.5 ± 3 µM; IC50 [2]: 4.3 ± 0.7 µM; toxicity against MT4 cells (MT4 cells [3]): > 100 µM; CC50 [4]: > 100 µM; IC50 (HIV-1 IN-LEDGF binding): > 100 µM; IC50 (HIV-1 RT-associated RDDP): 8.5 ± 0.5 µM; IC50 [5]: 18.5 ± 3.5 µM; IC50 [6]: 73.5 ± 13.5 µM; EC50 (HIV-1 [7]; [10]): < 20 µM; EC50 (HIV-1 [7]; viral replication in MT4 cells): 32 ± 3.2 µM

Question: With `O=C1Nc2ccc(Cl)cc2[C@@](C#CC2CC2)(C(F)(F)F)O1` [EFV, efavirenz] as the compound, how does the “increase in IC50 vs wt RT, RDDP activity” value (HIV-1 RT K103N (RDDP)) read?
Answer: Its value is 9.1 fold.

Question: What about the “increase in IC50 vs wt RT, RDDP activity” value (HIV-1 RT Y181C (RDDP)) of the same compound?
Answer: The value was 3.5 fold.

Question: And the “increase in IC50 vs wt RT, RDDP activity” value (HIV-1 RT Y188L (RDDP))?
Answer: The value was 14 fold.

Question: What about the CC50 (MT4 cells [8]; read-out: MT4 CC50, MT4 cells viability, ref Corona et al. (2014a)) of the same compound?
Answer: The CC50 was greater than 0.31 µM.

Question: Which EC50 (HIV-1 [9]) does the source give for `CCOC(=O)C(=O)CC(=O)/C=C/c1cccn1Cc1ccccc1Cl` [RDS1759] here?
Answer: Its EC50 is 2100 nM.

Question: And the CC50 (MT4 cells [8])?
Answer: Its CC50 is greater than 50 µM.

Question: With `N#Cc1ccc(-c2csc(NN=C3C(=O)Nc4ccccc43)n2)cc1` [RMNC6, reference compound] as the compound, how does the IC50 [1] read?
Answer: Its IC50 is greater than 100 µM.

Question: And the IC50 (HIV-1 IN-LEDGF binding)?
Answer: The IC50 was greater than 100 µM.

Question: And the IC50 [5]?
Answer: The IC50 was greater than 100 µM.

Question: And the IC50 [6]?
Answer: Its IC50 is greater than 100 µM.
